Laboratory results: patent US20260167656A1, “PHOSPHORAMIDATE COMPOUNDS AND USES THEREOF” (ALLORION THERAPEUTICS INC, priority 2022, published 2026)

Legend:
[1] = test system: non-small cell lung cancer cell line H460; assay: H460 proliferation assay in the presence of 3 uM ASP9521 (AKR1C3 specific inhibitor); type: cell-based, human; conditions: H460 cells, CellTiter-Glo, 72 hours, in the presence of 3 uM ASP9521 added 4 hours prior to compounds; read-out: CTG H460: Avg IC50 (nM) [Assay Condition: ASP9521]
Protocol: (§1) Specifically, exponentially growing cells were seeded at density of 3×10^3 cells per well in 96-well plate and incubated at 37° C. in 5% CO2, 95% air and 100% relative humidity for 24 hours before adding compounds. Compounds were solubilized in 100% DMSO at 10 mM. Compounds were added to the plate using Tecan D300e® digital Dispenser. After drug addition, the plates were incubated for an additional 72 hours at 37° C. in 5% CO2, 95% air and 100% relative humidity. At the end of the incubation, cell viability was quantified with CellTiter-Glo® assay.
To further confirm that compounds were activated by human AKR1C3, H460 proliferation assay were also performed in the presence of 3 uM […], an AKR1C3 specific inhibitor. ASP9521 were added to the plates 4 hours prior to the addition of compounds.

[2] = test system: non-small cell lung cancer cell line H460; assay: In vitro human cancer cell line cytotoxicity (proliferation) assay in H460, CellTiter-Glo, 72 hours; type: cell-based; conditions: H460 cells, DMSO condition (no AKR1C3 inhibitor), read-out: CTG H460: Avg IC50 (nM) [Assay Condition: DMSO]
Protocol: Biological Example 1. In Vitro Human Cancer Cell Line Cytotoxicity Assay
IC50 values in nanomolar reported here were derived from in vitro proliferation assay data in non-small cell lung cancer cell line H460.
as §1

| SMILES | IC50 [1] [nM] | IC50 ([2]; Homo sapiens, NCI-H460, 72 h) [nM] | IC50 [2] [nM] |
| --- | --- | --- | --- |
| O=[N+]([O-])c1cc2c(cc1Oc1ccc(-c3ccccn3)cc1)C(OP(=O)(N1CC1)N1CC1)CC2 (single isomer, unassigned) [Example 188] | 2070 | < 10 | – |
| O=[N+]([O-])c1cc2c(cc1Oc1ccc(-c3ccccn3)cc1)C(OP(=O)(N1CC1)N1CC1)CC2 (single isomer, unassigned) [Example 189] | 1190 | – | < 10 |
| CN1Cc2ccc(Oc3cc4c(cc3[N+](=O)[O-])OCCC4OP(=O)(N3CC3)N3CC3)cc2C1=O (single isomer, unassigned) [Example 201] | 605 | < 10 | – |
| CN1Cc2ccc(Oc3cc4c(cc3[N+](=O)[O-])OCCC4OP(=O)(N3CC3)N3CC3)cc2C1=O (single isomer, unassigned) [Example 202] | 1390 | – | < 10 |
| O=C1c2cc(Oc3cc4c(cc3[N+](=O)[O-])OCCC4OP(=O)(N3CC3)N3CC3)ccc2CN1C1CC1 (single isomer, unassigned) [Example 203] | 959 | < 10 | – |
| O=C1c2cc(Oc3cc4c(cc3[N+](=O)[O-])OCCC4OP(=O)(N3CC3)N3CC3)ccc2CN1C1CC1 (single isomer, unassigned) [Example 204] | 1550 | – | 10 to 50 |
| CC(OP(=O)(N1C[C@@H]1C)N1C[C@@H]1C)c1ccc([N+](=O)[O-])c(Oc2cccc(C(=O)N(C)C)c2)c1 (single isomer, unassigned) [Example 209] | 517 | < 10 | – |
| C[C@H]1CN1P(=O)(OC(c1ccc([N+](=O)[O-])c(Oc2cccc(C(=O)N(C)C)c2)c1)C(F)(F)F)N1C[C@@H]1C (single isomer, unassigned) [Example 225] | 9530 | 50 to 100 | – |
| CC(OP(=O)(N1CC1)N1CC1)c1cc2cc(Oc3cccc(C(=O)N(C)C)c3)c([N+](=O)[O-])cc2o1 (single isomer, unassigned) [Example 232] | 4110 | 10 to 50 | – |
| CC(OP(=O)(N1CC1)N1CC1)c1cc2cc(Oc3cccc(C(=O)N(C)C)c3)c([N+](=O)[O-])cc2o1 (single isomer, unassigned) [Example 233] | 3890 | – | < 10 |
| Cc1ccnc(-c2ccc(Oc3c([N+](=O)[O-])ccc4c3CC[C@@H]4OP(=O)(N3CC3)N3CC3)cc2)n1 (single isomer, unassigned) [Example 264] | 1370 | < 10 | – |
| O=[N+]([O-])c1ccc2c(c1Oc1ccc(-c3ncc(F)cn3)cc1)CC[C@@H]2OP(=O)(N1CC1)N1CC1 (single isomer, unassigned) [Example 265] | 1300 | < 10 | – |
| O=[N+]([O-])c1ccc2c(c1Oc1ccc(-c3ncc(F)cn3)cc1)CC[C@H]2OP(=O)(N1CC1)N1CC1 (single isomer, unassigned) [Example 266] | 716 | 10 to 50 | – |
| Cn1ccc2c(F)cc(Oc3c([N+](=O)[O-])ccc4c3CC[C@@H]4OP(=O)(N3CC3)N3CC3)cc21 (single isomer, unassigned) [Example 377] | 1330 | < 10 | – |
| O=[N+]([O-])c1ccc2c(c1Oc1ccc(F)c(-n3cccn3)c1)CC[C@@H]2OP(=O)(N1CC1)N1CC1 (single isomer, unassigned) [Example 403] | 1460 | < 10 | – |
| C[C@@H](OP(=O)(N1CC1)N1CC1)c1cc2cc(Oc3cccc(OC(F)(F)F)c3)c([N+](=O)[O-])cc2o1 (single isomer, unassigned) [Example 531] | 1430 | < 10 | – |
| C[C@H](OP(=O)(N1CC1)N1CC1)c1cc2cc(Oc3cccc(OC(F)(F)F)c3)c([N+](=O)[O-])cc2o1 (single isomer, unassigned) [Example 532] | 1230 | < 10 | – |
| [2H]C([2H])([2H])N(C(=O)c1cccc(Oc2cc3cc([C@H](C)OP(=O)(N4CC4)N4CC4)oc3cc2[N+](=O)[O-])c1)C([2H])([2H])[2H] (single isomer, unassigned) [Example 533] | 7430 | 10 to 50 | – |

| SMILES | IC50 [1] [nM] | IC50 ([2]; Homo sapiens, NCI-H460, 72 h) [nM] | IC50 [2] [nM] |
| --- | --- | --- | --- |
| CC(OP(=O)(N1CC1)N1CC1)c1ccc([N+](=O)[O-])c(Cn2ccc(=O)cc2)c1 (stereo not shown) [Example 4] | > 10000 | ≥ 100 | – |
| CC(OP(=O)(N1CC1)N1CC1)c1ccc([N+](=O)[O-])c(COc2ccncc2)c1 (stereo not shown) [Example 5] | > 10000 | ≥ 100 | – |
| CC(OP(=O)(N1CC1)N1CC1)c1ccc([N+](=O)[O-])c(Cn2cc(C(=O)N(C)C)ccc2=O)c1 (stereo not shown) [Example 6] | > 10000 | ≥ 100 | – |
| CC(OP(=O)(N1CC1)N1CC1)c1ccc([N+](=O)[O-])c(COc2ccc(C(=O)N(C)C)cn2)c1 (stereo not shown) [Example 7] | 3950 | 10 to 50 | – |
| CC(OP(=O)(N1CC1)N1CC1)c1cc(Oc2ccc(C(=O)N(C)C)cc2)c([N+](=O)[O-])cc1F (stereo not shown) [Example 8] | 1790 | < 10 | – |
| CC(OP(=O)(N1CC1)N1CC1)c1cc(Oc2ccc(C(=O)N(C)C)cc2)c([N+](=O)[O-])cc1Cl (stereo not shown) [Example 9] | 1720 | < 10 | – |
| CCC1CN1P(=O)(OCc1ccc([N+](=O)[O-])c(Oc2cccc(C(=O)N(C)C)c2)c1)N1CC1CC (stereo not shown) [Example 10] | 271 | < 10 | – |
| CC(C)C1CN1P(=O)(OCc1ccc([N+](=O)[O-])c(Oc2cccc(C(=O)N(C)C)c2)c1)N1CC1C(C)C (stereo not shown) [Example 11] | 2050 | ≥ 100 | – |
| C[C@H]1CN1P(=O)(OCc1c(F)c(F)c(OCc2ccc([N+](=O)[O-])c(Oc3cccc(C(=O)N(C)C)c3)c2)c(F)c1F)N1C[C@@H]1C (stereo partly drawn) [Example 12, 4-((3-(3-(dimethylcarbamoyl)phenoxy)-4-nitrobenzyl)oxy)-2,3,5,6-tetrafluorobenzyl bis((S)-2-methylaziridin-1-yl)phosphinate] | 89 | < 10 | – |
| C[C@@H]1CN1P(=O)(OCc1c(F)c(F)c(OCc2ccc([N+](=O)[O-])c(Oc3cccc(C(=O)N(C)C)c3)c2)c(F)c1F)N1C[C@H]1C (stereo partly shown) [Example 13] | 195 | < 10 | – |
| C[C@H]1CN1P(=O)(OCc1c(F)c(F)c(OCc2ccc([N+](=O)[O-])c(Oc3ccc(C(=O)N(C)C)cc3)c2)c(F)c1F)N1C[C@@H]1C (stereo partly shown) [Example 14] | 553 | < 10 | – |
| C[C@@H]1CN1P(=O)(COc1c(F)c(F)c(OCc2ccc([N+](=O)[O-])c(Oc3ccc(C(=O)N(C)C)cc3)c2)c(F)c1F)N1C[C@H]1C (stereo partly shown) [Example 15] | 947 | < 10 | – |
| O=[N+]([O-])c1ccc2c(c1Oc1ccccc1)CCC2OP(=O)(N1CC1)N1CC1 (stereo not shown) [Example 16, 5-nitro-4-phenoxy-2,3-dihydro-1H-inden-1-yl di(aziridin-1-yl)phosphinate] | 261 | 10 to 50 | – |
| O=[N+]([O-])c1ccc2c(c1Oc1ccc(-c3ccc(F)cc3)cc1)CCC2OP(=O)(N1CC1)N1CC1 (stereo not shown) [Example 21] | 1420 | < 10 | – |
| O=[N+]([O-])c1ccc2c(c1Oc1ccc(-c3ccc(F)cc3)cc1)CCC2OP(=O)(N1CC1)N1CC1 (stereo not shown) [Example 22] | 1640 | – | 10 to 50 |
| CN1Cc2ccc(Oc3c([N+](=O)[O-])ccc4c3CCC4OP(=O)(N3CC3)N3CC3)cc2C1=O (stereo not shown) [Example 23] | 75.9 | < 10 | – |
| CN1Cc2ccc(Oc3c([N+](=O)[O-])ccc4c3CCC4OP(=O)(N3CC3)N3CC3)cc2C1=O (stereo not shown) [Example 24] | 916 | – | < 10 |
